# Assay results: patent US7091202B2, “4-arylspirocycloalkyl-2-aminopyrimidine carboxamide KCNQ potassium channel modulators” (Bristol-Myers Squibb Company, priority 2004, dated 2006)
# pEC50: −log10 of the molar value.
# Molecular target: T1, hQ23 (HEK-293 cell line stably transfected with one of the members of the KCNQ family) (Homo sapiens, UniProt O43525+O43526)
# T1 construct: expressed in transfected cells; host or cells: HEK-293, stably transfected
# Experiment: Thallium flux assay for KCNQ channel blockers (FLIPR, BTC dye)
# Assay type: cell-based
# Details: Table 2; thallium flux, HEK-293
# How it was run: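 FLIPR thallium flux readout (BTC dye, 2 μM AM ester) in stably transfected KCNQ HEK-293 cells, chloride-free HEPES buffer pH 7.3, Tl2SO4 stimulus. IC50s were fitted with a single-site logistic equation across 10 points at 1:3 dilutions, defined as 50% of positive-control block; minimal active concentration meant signal ≥4 SD over DMSO controls.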
# T1 sequence (O43526 whole entry): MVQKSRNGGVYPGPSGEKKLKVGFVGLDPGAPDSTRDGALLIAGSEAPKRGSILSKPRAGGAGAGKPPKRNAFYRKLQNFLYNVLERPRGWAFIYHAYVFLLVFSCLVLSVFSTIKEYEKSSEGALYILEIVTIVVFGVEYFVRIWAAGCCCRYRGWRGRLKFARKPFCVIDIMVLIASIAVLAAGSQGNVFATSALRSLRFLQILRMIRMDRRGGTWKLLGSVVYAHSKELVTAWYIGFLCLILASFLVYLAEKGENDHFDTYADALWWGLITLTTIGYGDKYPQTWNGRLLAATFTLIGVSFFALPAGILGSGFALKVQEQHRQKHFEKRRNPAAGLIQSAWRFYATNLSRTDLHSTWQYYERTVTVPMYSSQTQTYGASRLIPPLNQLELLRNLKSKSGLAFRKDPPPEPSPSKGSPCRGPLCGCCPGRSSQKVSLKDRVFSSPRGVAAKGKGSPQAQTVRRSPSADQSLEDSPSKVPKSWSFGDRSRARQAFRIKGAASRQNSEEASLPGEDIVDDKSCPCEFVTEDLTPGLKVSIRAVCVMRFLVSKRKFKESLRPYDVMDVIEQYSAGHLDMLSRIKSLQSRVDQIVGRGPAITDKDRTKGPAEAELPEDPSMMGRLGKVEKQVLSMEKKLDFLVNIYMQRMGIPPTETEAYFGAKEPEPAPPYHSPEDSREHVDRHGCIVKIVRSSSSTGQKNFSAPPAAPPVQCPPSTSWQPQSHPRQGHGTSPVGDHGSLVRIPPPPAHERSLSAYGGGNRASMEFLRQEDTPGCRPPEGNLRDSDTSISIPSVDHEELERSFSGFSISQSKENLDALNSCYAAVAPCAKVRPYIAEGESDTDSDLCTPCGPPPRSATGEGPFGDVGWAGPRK
# T1 sequence (O43525 whole entry): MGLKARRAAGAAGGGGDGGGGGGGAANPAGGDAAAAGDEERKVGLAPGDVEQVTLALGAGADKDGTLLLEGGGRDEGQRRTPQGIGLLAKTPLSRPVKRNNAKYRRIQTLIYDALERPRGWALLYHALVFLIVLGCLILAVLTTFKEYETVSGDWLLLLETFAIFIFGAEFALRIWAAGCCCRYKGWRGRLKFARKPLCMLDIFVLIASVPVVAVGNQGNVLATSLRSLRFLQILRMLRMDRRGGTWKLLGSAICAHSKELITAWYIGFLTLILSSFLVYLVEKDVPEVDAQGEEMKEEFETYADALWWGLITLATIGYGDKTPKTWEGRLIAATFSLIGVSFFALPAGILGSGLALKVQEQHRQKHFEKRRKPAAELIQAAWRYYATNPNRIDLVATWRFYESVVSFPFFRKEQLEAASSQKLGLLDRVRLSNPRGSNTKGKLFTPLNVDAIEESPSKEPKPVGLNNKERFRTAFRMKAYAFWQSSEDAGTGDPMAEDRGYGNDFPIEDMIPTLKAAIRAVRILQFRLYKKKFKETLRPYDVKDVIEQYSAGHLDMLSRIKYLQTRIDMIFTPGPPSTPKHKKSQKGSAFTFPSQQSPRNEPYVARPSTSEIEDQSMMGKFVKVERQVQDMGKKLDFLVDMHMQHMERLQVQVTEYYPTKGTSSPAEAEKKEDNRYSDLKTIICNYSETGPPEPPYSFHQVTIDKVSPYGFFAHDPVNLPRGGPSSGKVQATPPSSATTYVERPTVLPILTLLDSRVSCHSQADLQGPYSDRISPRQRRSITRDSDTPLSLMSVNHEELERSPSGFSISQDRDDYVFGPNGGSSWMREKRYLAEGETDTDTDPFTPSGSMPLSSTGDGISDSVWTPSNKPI
row,Compound,pEC50
1,"CC1CCC(Nc2ncc(C(=O)N[C@H](C)c3cccc4ccccc34)c(C3(c4ccccc4)CC3)n2)CC1 (stereo partly drawn) [Example 33, 5-pyrimidinecarboxamide, 2-[(4-methylcyclohexyl)amino]-N-[(1R)-1-(1-naphthalenyl)ethyl]-4-(1-phenylcyclopropyl)-]",6.53
2,"CC1CCN(c2ncc(C(=O)NCc3cccc4ccccc34)c(C3(c4ccccc4)CC3)n2)CC1 [Example 38, 5-pyrimidinecarboxamide, 2-(4-methyl-1-piperidinyl)-N-(1-naphthalenylmethyl)-4-(1-phenylcyclopropyl)-]",6.42
3,"CC1CCC(Nc2ncc(C(=O)NCc3cc(F)cc(C(F)(F)F)c3)c(C3(c4ccccc4)CC3)n2)CC1 (stereo not drawn) [Example 44, 5-pyrimidinecarboxamide, N-[[3-fluoro-5-(trifluoromethyl)phenyl]methyl]-2-[(4-methylcyclohexyl)amino]-4-(1-phenylcyclopropyl)-]",7.36
4,"CN(C)CCNc1ncc(C(=O)N(C)CCc2ccccc2)c(C2(c3ccccc3)CC2)n1 [Example 28, 5-pyrimidinecarboxamide, 2-[[2-(dimethylamino)ethyl]amino]-N-methyl-4-(1-phenylcyclopropyl)-N-(2-phenylethyl)-]",6.52

# Same assay, conditions: hQ23 cells, thallium flux
row,Compound,pEC50
1,"CCN(C(=O)c1cnc(NC2CCCC2)nc1C1(c2ccc(F)cc2)CCCC1)C1CCCCC1 [Example 217, 5-pyrimidinecarboxamide, N-cyclohexyl-2-(cyclopentylamino)-N-ethyl-4-[1-(4-fluorophenyl)cyclopentyl]-]",6.32
2,"CN(C(=O)c1cnc(NC2CCCC2)nc1C1(c2ccc(F)cc2)CCCC1)C1CCCCC1 [Example 209, 5-pyrimidinecarboxamide, N-cyclohexyl-2-(cyclopentylamino)-4-[1-(4-fluorophenyl)cyclopentyl]-N-methyl-]",6.15
3,"O=C(c1cnc(NC2CCCC2)nc1C1(c2ccccc2)CCCC1)N1CCc2ccccc2C1 [Example 75, isoquinoline, 2-[[2-(cyclopentylamino)-4-(1-phenylcyclopentyl)-5-pyrimidinyl]carbonyl]-1,2,3,4-tetrahydro-]",6.02
4,"CN(CCc1ccccc1)C(=O)c1cnc(N2CCCC2)nc1C1(c2ccc(Cl)cc2)CCCC1 [Example 147, 5-pyrimidinecarboxamide, 4-[1-(4-chlorophenyl)cyclopentyl]-N-methyl-N-(2-phenylethyl)-2-(1-pyrrolidinyl)-]",6.77
5,"O=C(NCc1cccc2ccccc12)c1cnc(NC2CC2)nc1C1(c2ccccc2)CCCC1 [Example 101, 5-pyrimidinecarboxamide, 2-(cyclopropylamino)-N-(1-naphthalenylmethyl)-4-(1-phenylcyclopentyl)-]",6.17
6,"O=C(NCc1ccc(Cl)cc1Cl)c1cnc(NC2CCCC2)nc1C1(c2ccccc2)CCCC1 [Example 115, 5-pyrimidinecarboxamide, 2-(cyclopentylamino)-N-[(2,4-dichlorophenyl)methyl]-4-(1-phenylcyclopentyl)-]",6.87
7,"CC1CCC(Nc2ncc(C(=O)NCc3cc(F)cc(C(F)(F)F)c3)c(C3(c4ccc(Cl)cc4)CCCC3)n2)CC1 (stereo not drawn) [Example 190, 5-pyrimidinecarboxamide, 4-[1-(4-chlorophenyl)cyclopentyl]-N-[[3-fluoro-5-(trifluoromethyl)phenyl]methyl]-2-[(4-methylcyclohexyl)amino]-]",6.79
8,"CCN(Cc1ccccc1)C(=O)c1cnc(NC2CCC(C)CC2)nc1C1(c2ccccc2)CCCC1 (stereo not drawn) [Example 84, 5-pyrimidinecarboxamide, N-ethyl-2-[(4-methylcyclohexyl)amino]-4-(1-phenylcyclopentyl)-N-(phenylmethyl)-]",6.08
9,"CC1CCCN(c2ncc(C(=O)NCc3cc(F)cc(C(F)(F)F)c3)c(C3(c4ccccc4)CCCC3)n2)C1 (stereo not drawn) [Example 126, 5-pyrimidinecarboxamide, N-[[3-fluoro-5-(trifluoromethyl)phenyl]methyl]-2-(3-methyl-1-piperidinyl)-4-(1-phenylcyclopentyl)-]",6.50
10,"CN(C)CCNc1ncc(C(=O)NCc2cc(F)cc(C(F)(F)F)c2)c(C2(c3ccccc3)CCCC2)n1 [Example 129, 5-pyrimidinecarboxamide, 2-[[2-(dimethylamino)ethyl]amino]-N-[[3-fluoro-5-(trifluoromethyl)phenyl]methyl]-4-(1-phenylcyclopentyl)-]",7.70
11,"CC1CCCN(c2ncc(C(=O)N3CCc4ccccc4C3)c(C3(c4ccc(F)cc4)CCCC3)n2)C1 (stereo not drawn) [Example 211, isoquinoline, 2-[[4-[1-(4-fluorophenyl)cyclopentyl]-2-(3-methyl-1-piperidinyl)-5-pyrimidinyl]carbonyl]-1,2,3,4-tetrahydro-]",6.57
12,"CCN(C(=O)c1cnc(N2CCC(C)CC2)nc1C1(c2ccc(F)cc2)CCCC1)C1CCCCC1 [Example 215, 5-pyrimidinecarboxamide, N-cyclohexyl-N-ethyl-4-[1-(4-fluorophenyl)cyclopentyl]-2-(4-methyl-1-piperidinyl)-]",6.04
13,"CC1CCN(c2ncc(C(=O)NCc3cc(F)cc(C(F)(F)F)c3)c(C3(c4ccccc4)CCCC3)n2)CC1 [Example 127, 5-pyrimidinecarboxamide, N-[[3-fluoro-5-(trifluoromethyl)phenyl]methyl]-2-(4-methyl-1-piperidinyl)-4-(1-phenylcylopentyl)-]",8.00
14,"CC1CCN(c2ncc(C(=O)NC(C)c3cccc4ccccc34)c(C3(c4ccc(Cl)cc4)CCCC3)n2)CC1 (stereo not drawn) [Example 161, 5-pyrimidinecarboxamide, 4-[1-(4-chlorophenyl)cyclopentyl]-2-(4-methyl-1-piperidinyl)-N-[1-(1-naphthalenyl)ethyl]-]",8.00
15,"CCC(C)Nc1ncc(C(=O)NCc2ccc(F)cc2F)c(C2(c3ccccc3)CCCC2)n1 (stereo not drawn) [Example 120, 5-pyrimidinecarboxamide, N-[(2,4-difluorophenyl)methyl]-2-[(1-methylpropyl)amino]-4-(1-phenylcyclopentyl)-]",7.21
16,"CC1CCCN(c2ncc(C(=O)NCc3cc(F)cc(C(F)(F)F)c3)c(C3(c4ccc(Cl)cc4)CCCC3)n2)C1 (stereo not drawn) [Example 192, 5-pyrimidinecarboxamide, 4-[1-(4-chlorophenyl)cyclopentyl]-N-[[3-fluoro-5-(trifluoromethyl)phenyl]methyl]-2-(3-methyl-1-piperidinyl)-]",8.00
17,"CCN(C(=O)c1cnc(N2CCC(C)CC2)nc1C1(c2ccccc2)CCCC1)C1CCCCC1 [Example 76, 5-pyrimidinecarboxamide, N-cyclohexyl-N-ethyl-2-(4-methyl-1-piperidinyl)-4-(1-phenylcyclopentyl)-]",6.05
18,"CN(C)CCNc1ncc(C(=O)NCc2cc(F)cc(C(F)(F)F)c2)c(C2(c3ccc(Cl)cc3)CCCC2)n1 [Example 195, 5-pyrimidinecarboxamide, 4-[1-(4-chlorophenyl)cyclopentyl]-2-[[2-(dimethylamino)ethyl]amino]-N-[[3-fluoro-5-(trifluoromethyl)phenyl]methyl]-]",6.20
19,"CCN(C)C(=O)c1cnc(N2CCCC(C)C2)nc1C1(c2ccccc2)CCCC1 (stereo not drawn) [Example 83, 5-pyrimidinecarboxamide, N-ethyl-N-methyl-2-(3-methyl-1-piperidinyl)-4-(1-phenylcyclopentyl)-]",6.22

# Same assay, conditions: hQ23 cells, thallium flux assay
row,Compound,pEC50
1,"O=C(NCc1ccc2c(c1)OCO2)c1cnc(NC2CC2)nc1C1(c2ccc(F)cc2)CCCC1 [Example 233, 5-pyrimidinecarboxamide, N-(1,3-benzodioxol-5-ylmethyl)-2-(cyclopropylamino)-4-[1-(4-fluorophenyl)cyclopentyl]-]",6.36
